Columns and labels:
Format in all cases: cell-based
TRPV1 = target: T1, TRPV1 (Rattus norvegicus, UniProt O35433); test: Whole-cell patch clamp of TRPV1 currents in HEK293 cells overexpressing TRPV1 (HEK293-V1); conditions: for Max I amplitude: 120 s, Ca 1 mM external, unbuffered internal calcium
T1 construct: FLAG; expressed in transfected cells
Description: (§1) HEK TRexTRPV1 were cultured in DMEM, 10% Fetal Bovine Serum, 2 mM Lglutamine, 10 μg/ml Blasticidin (Calbiochem, San Diego Calif.), 400 μg/ml Zeocin (InvivoGen, San Diego Calif.), where indicated transgene expression was induced using 1 μg/ml Tetracycline for 16-24 hrs. Unless otherwise indicated, basal expression of TRPV1 without induction was sufficient for these studies, and comparisons were made to untransfected HEK where needed. HEKTRex293 over-expressing human TRPV2, human TRPA1 and human TRPM8 were obtained from SB Drug Discovery (Glasgow, Scotland) and cultured as described above. The cannabinoids and terpenes were assayed in HEK cells that have been transfected with the TRPV1 ion channel protein. These cells are called HEK293-V1 cells.
This technique is used to study ionic currents from HEK293-V1. The voltage across the cell membrane is controlled and the ionic currents associated with changes in voltage are measured. A micropipette tip is pulled to a few micrometers in diameter followed by heating the tip to produce a smooth surface that assists in forming a high resistance seal with the cell membrane. To obtain this high resistance seal, the micropipette is pressed against a cell membrane and suction is applied. The membrane then fuses onto the glass surface creating a high resistance in the gigaohm range. This makes it possible to isolate electronically the ionic currents measured across the membrane patch or across the entire cell.
Patch-clamp experiments were performed in the whole-cell configuration at 21-25° C. Patch pipettes had resistances of 2-3 MΩ. Data was acquired with PatchMaster software (HEKA, Lambrecht, Germany), controlling an EPC-9 amplifier. Voltage ramps of 50 ms spanning the voltage range from −100 to 100 mV were delivered from a holding potential of 0 mV at a rate of 0.5 Hz over a period of 500 ms to 180 seconds (3 minutes). Voltages were corrected for a liquid junction potential of 10 mV. Currents were filtered at 2.9 kHz and digitized at 100 μs intervals. Capacitive currents were determined and corrected before each voltage ramp. The development of currents for a given potential was extracted from individual ramp current records by measuring the current amplitudes at voltages of −80 mV and +80 mV. Data were analyzed with FitMaster (HEKA, Lambrecht, Germany), and IgorPro (WaveMetrics, Lake Oswego, Oreg., USA). Where applicable, statistical errors of averaged data are given as mean±s.e.m with n determinations. The activated current amplitudes are analyzed by nA rather than pA/pF. […] Also the cell size selected for patching was in the 9 -12 pF range.
For patch-clamp recordings, HEK293 cells were kept in a standard sodium-based external Ringer's solution containing (mM): 140 NaCl, 1 CaCl2, 2 MgCl2, 2.8 KCl, 11 glucose, 10 HEPES-NaOH with a pH of 7.2 and osmolarity of 300 mOsmol. To assess the effects of external Calcium (Ca) on TRPV1 inactivation kinetics, Ca at different levels were tested including 0, 1, and 3 mM. In Experiments with zero external Ca, EGTA 10 mM was added and the Na concentration was lowered to 130 mM to maintain standard osmotic conditions at 300 mOsmol. For rapid external solution application and exchanges we used the SmartSquirt delivery system (Auto-Mate Scientific, San Francisco Calif., USA) that included four cryo tubes allowing for solution exchanges within one patch. This system included a ValveLink TTL interface between the electronic valves and the EPC10 amplifier (HEKA, Lambrecht, Germany). This electronic configuration allowed for programmable solution changes via the PatchMaster software (HEKA, Lambrecht, Germany).

TRPM8 = target: T2, TRPM8 (Homo sapiens, UniProt Q7Z2W7); test: Bulk calcium assay (Fluo-4) in HEK cells overexpressing TRPM8
T2 construct: host or cells: HEK TRex293
T2 sequence (Q7Z2W7 whole entry): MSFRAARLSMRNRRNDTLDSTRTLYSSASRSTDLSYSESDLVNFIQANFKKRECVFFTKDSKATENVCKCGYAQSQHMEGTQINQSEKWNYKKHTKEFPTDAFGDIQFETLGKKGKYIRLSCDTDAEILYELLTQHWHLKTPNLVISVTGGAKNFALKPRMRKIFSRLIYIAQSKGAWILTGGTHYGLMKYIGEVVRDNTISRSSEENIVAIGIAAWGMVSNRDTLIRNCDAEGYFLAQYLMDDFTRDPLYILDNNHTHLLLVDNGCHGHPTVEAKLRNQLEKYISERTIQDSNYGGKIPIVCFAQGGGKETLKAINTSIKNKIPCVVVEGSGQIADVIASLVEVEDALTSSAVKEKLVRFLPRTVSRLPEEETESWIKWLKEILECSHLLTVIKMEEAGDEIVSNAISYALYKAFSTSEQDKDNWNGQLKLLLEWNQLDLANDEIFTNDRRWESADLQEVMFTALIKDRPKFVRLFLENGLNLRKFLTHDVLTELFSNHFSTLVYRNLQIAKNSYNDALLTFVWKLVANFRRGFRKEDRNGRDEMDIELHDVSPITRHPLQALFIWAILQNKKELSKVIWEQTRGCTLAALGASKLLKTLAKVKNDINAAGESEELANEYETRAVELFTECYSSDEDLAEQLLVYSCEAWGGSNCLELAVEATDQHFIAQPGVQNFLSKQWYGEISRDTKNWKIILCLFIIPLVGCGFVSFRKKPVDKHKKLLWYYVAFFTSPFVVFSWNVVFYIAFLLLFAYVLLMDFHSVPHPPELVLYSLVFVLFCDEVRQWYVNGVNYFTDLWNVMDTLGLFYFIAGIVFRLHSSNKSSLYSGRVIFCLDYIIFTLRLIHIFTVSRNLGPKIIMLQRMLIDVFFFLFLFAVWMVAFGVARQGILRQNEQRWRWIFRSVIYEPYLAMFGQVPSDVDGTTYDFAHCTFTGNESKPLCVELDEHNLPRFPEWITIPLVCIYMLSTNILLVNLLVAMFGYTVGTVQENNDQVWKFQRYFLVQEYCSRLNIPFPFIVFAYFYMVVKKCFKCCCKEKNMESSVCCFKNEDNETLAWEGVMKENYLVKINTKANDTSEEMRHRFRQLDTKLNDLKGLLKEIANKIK
Description: as §1
(§2) Cells were washed and incubated with 0.2 micromolar Fluo-4 for 30 minutes at 37° C. in a standard modified Ringer's solution of the following composition (in mM): NaCl 145, KCl 2.8, CsCl 10, CaCl2 10, MgCl2 2, glucose 10, Hepes·NaOH 10, pH 7.4, 330 mOsm. Cells were transferred to 96-well plates at 50,000 cells/well and stimulated as indicated. Calcium signals were acquired using a Flexstation 3 (Molecular Devices, Sunnydale, USA). Data was analyzed using SoftMax® Pro 5 (Molecular Devices). Where indicated, nomically calcium-free external conditions were achieved by the preparation of 0 mM CaCl2 Ringer solution containing 1 mM EGTA.
(§3) Calcium responses mediated by TRPA1, TRPM8, TRPV2, and TRPV1 were tested by calcium assay in the cell culture system. Cells were washed and incubated with 0.2 μM fluo-4 acetoxymethyl ester (“Fluo-4”) for 30 minutes at 37° C. in a standard modified Ringer's solution of the following composition (in mM): NaCl 145, KCl 2.8, CsCl 10, CaCl2 10, MgCl2 2, glucose 10, Hepes·NaOH 10, pH 7.4, 330 mOsm. Cells were transferred to 96-well plates at 50,000 cells/well and stimulated with 10 μM myrcene diluted in DMSO. Vehicle (DMSO) was used as a negative control. Vehicle traces were subtracted from the myrcene traces for each cell line.
(§4) The potential for different cannabinoids to target specific TRP channels, or to co-target more than one channel type, are of potential therapeutic options for the treatment and management of pain. Comparison of the impacts of a variety of cannabinoid on overexpression systems for TRPV2, TRPM8, and TRPA1 were performed in a side-by-side fashion, under bulk calcium assays where the measurements with each trace representing averaged triplicates of 100,000 cells per sample. As shown in FIGS. 41-43 and summarized in Table 3, there are clear differences in responsiveness between cannabinoids at a single channel type than between channel types to a given cannabinoid.

WT HEK293 = test: Bulk calcium assay in untransfected WT HEK293; conditions: 10 μM, 1 mM external Ca2+
TRPA1 = target: T3, TRPA1 (Homo sapiens, UniProt O75762); test: Bulk calcium assay (Fluo-4) in HEK cells overexpressing TRPA1
T3 construct: host or cells: HEK TRex293
T3 sequence (O75762 whole entry): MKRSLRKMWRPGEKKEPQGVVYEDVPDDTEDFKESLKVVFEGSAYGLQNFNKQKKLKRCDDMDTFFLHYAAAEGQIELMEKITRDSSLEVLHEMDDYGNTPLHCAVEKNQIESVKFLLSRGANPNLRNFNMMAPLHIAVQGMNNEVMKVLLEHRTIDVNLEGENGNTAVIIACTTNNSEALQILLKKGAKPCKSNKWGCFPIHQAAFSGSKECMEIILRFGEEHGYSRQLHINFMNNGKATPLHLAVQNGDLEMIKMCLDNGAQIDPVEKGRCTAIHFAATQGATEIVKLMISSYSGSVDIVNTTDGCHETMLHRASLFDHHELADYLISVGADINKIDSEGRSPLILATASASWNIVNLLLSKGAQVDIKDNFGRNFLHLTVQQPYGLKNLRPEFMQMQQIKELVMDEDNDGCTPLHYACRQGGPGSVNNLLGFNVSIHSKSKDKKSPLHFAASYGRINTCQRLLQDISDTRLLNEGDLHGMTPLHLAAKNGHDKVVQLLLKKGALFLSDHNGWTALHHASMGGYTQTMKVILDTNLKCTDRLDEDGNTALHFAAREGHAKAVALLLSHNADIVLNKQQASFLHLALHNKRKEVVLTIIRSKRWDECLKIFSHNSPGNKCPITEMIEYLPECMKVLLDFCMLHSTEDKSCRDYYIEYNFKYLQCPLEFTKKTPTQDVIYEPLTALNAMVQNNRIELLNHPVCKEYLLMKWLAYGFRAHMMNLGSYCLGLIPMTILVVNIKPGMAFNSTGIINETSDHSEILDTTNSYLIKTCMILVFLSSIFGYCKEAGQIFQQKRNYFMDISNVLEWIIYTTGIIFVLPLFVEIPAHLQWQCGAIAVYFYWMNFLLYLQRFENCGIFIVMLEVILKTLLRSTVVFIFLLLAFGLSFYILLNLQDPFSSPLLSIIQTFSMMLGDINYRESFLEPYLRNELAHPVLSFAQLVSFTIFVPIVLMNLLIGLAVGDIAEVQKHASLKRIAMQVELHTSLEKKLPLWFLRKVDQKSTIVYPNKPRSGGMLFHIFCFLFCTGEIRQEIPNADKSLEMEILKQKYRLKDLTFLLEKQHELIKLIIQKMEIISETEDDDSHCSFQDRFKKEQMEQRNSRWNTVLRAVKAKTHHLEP
Description: as §1, §2, §3, §4

T1 sequence (O35433 whole entry): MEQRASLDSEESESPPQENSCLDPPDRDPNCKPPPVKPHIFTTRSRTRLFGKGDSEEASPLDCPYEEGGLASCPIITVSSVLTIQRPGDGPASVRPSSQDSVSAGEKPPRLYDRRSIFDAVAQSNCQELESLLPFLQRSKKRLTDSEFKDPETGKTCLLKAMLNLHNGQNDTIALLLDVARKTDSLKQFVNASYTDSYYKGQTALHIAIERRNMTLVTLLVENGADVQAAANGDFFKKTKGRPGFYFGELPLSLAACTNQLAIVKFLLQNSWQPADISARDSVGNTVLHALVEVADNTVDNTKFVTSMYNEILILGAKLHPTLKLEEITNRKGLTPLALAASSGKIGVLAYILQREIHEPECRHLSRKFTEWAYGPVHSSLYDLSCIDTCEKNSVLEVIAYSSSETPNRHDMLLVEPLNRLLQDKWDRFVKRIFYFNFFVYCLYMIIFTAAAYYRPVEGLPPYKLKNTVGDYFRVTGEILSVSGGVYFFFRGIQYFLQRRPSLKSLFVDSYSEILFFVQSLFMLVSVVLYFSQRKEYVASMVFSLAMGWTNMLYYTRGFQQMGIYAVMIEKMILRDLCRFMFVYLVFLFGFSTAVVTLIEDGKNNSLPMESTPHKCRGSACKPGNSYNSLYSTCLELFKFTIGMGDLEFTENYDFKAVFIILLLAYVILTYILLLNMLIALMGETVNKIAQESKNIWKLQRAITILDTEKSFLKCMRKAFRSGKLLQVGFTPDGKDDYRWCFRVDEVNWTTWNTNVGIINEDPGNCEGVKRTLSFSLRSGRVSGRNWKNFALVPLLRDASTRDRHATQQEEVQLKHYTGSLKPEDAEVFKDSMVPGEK

SMILES: C=C(C)[C@@H]1CCC(C)=C[C@H]1c1c(O)cc(CCC)cc1O [CBDV, Cannabidivarin]
- attainment of the pore-dilated state (TRPV1; 50 μM, induction time 25 hours (FIGS. 37-40C)): lack of attainment of the pore-dilated state
- IV relationship / TRPV1 channel state (TRPV1; after cannabinoid at 50 (voltage ramp)): outwardly-rectifying IV curve consistent with un-dilated TRPV1 (state 1)
- EC50 (TRPV1; calculated from Imax per dose, HEK-TRPV1 patch clamp, read-out: EC50 at TRPV1): 56 µM
- inward current induced (TRPV1; cannabinoid at 50 (FIGS. 3A, 4A, 6A, 7A), applied at data point 60): 2-3 nA
- time course of induced TRPV1 current (sustained or inactivating) (TRPV1; cannabinoid at 50, 5 μM myrcene or 1 μM capsaicin): sustained
- Rate of inactivation (TRPV1; dose 10 micromolar): 0 dpsec^−1
- Time to max (TRPV1; dose 10 micromolar): 148 s
- Max I amplitude (TRPV1; dose 10 micromolar): 0.5 nA
- Rate of inactivation (TRPV1; dose 30 micromolar): .013 dpsec^−1
- Time to max (TRPV1; dose 30 micromolar): 136 s
- Max I amplitude (TRPV1; dose 30 micromolar): 1.5 nA
- Rate of inactivation (TRPV1; dose 50 micromolar): .009 dpsec^−1
- Time to max (TRPV1; dose 50 micromolar): 82 s
- Max I amplitude (TRPV1; dose 50 micromolar): 0.9 nA
- Rate of inactivation (TRPV1; dose 150 micromolar): .14 dpsec^−1
- Time to max (TRPV1; dose 150 micromolar): 62 s
- Max I amplitude (TRPV1; dose 150 micromolar): 3.9 nA
- mean maximal Ca^2+ signal RFU achieved 0-180 s (SD), TRM8 (TRPM8): 3.89 (0.05) RFU
- calcium response of WT HEK293 (WT HEK293): responding slightly
- mean maximal Ca^2+ signal RFU achieved 0-180 s (SD), TRPA1 (TRPA1): 16.17 (2.68) RFU
